The test system of the test is HCV 1b genotype. As to the kind of experiment: HCV replicon assay (HCV-neo replicon cells, wild-type). The following applies: HCV 1b genotype replicon. Format: cell-based, Hepatitis C virus. The essentials:
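Inhibition was tested in replicon-bearing cells, both wild-type HCV-neo and lines with NS5A resistance substitutions, using the O'Boyle et al. 2005 replicon method or luciferase-reporter formats.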
For orientation: Replicon systems follow genome replication, usually without infectious particles.

The mark [1] stands for this setting: Hepatitis C virus, class symbol, read-out: EC50 Range against HCV 1b.
[2] abbreviates: Hepatitis C virus, read-out: EC50 1b.
[3] abbreviates: class symbol, read-out: EC50 Range against HCV 1b.

Structures are written as SMILES. Like-named read-outs stand apart in the source and are kept apart here.

What is called EC50 is the concentration needed to bring the measured effect to its halfway point. With `O=C(Nc1ccc(-c2cc(-c3ccc(NC(=O)[C@@H]4CCCN4C(=O)c4nc5ccccc5s4)cc3)[nH]n2)cc1)[C@@H]1CCCN1C(=O)c1nc2ccccc2s1` [JG-41, (2S,2′S)-N,N′-(1H-pyrazole-3,5-diyldi-4,1-phenylene)bis(1-(1,3-benzothiazol-2-ylcarbonyl)-2-pyrrolidinecarboxamide)], the EC50 under setting [1] was in the range of 100 to 999 nM. Consider `O=C(C(=O)N1CCC[C@H]1C(=O)Nc1ccc(-c2nc[nH]c2-c2ccc(NC(=O)[C@@H]3CCCN3C(=O)C(=O)c3ccccc3)cc2)cc1)c1ccccc1` [JG-42, (2S,2′S)-N,N′-(1H-imidazole-4,5-diyldi-4,1-phenylene)bis(1-(oxo(phenyl)acetyl)-2-pyrrolidinecarboxamide)], for which the EC50 under setting [1] is below 4.57 nM. Take `O=C(Nc1ccc(-c2nc[nH]c2-c2ccc(NC(=O)[C@@H]3CCCN3C(=O)[C@H](O)c3ccccc3)cc2)cc1)[C@@H]1CCCN1C(=O)[C@H](O)c1ccccc1` [JG-43, (2S,2′S)-N,N′-(1H-imidazole-4,5-diyldi-4,1-phenylene)bis(1-((2R)-2-hydroxy-2-phenylacetyl)-2-pyrrolidinecarboxamide)]: the EC50 under setting [1] was below 4.57 nM. Regarding `O=C(Nc1ccc(-c2nc[nH]c2-c2ccc(NC(=O)[C@@H]3CCCN3C(=O)[C@@H](O)c3ccccc3)cc2)cc1)[C@@H]1CCCN1C(=O)[C@@H](O)c1ccccc1` [JG-44, (2S,2′S)-N,N′-(1H-imidazole-4,5-diyldi-4,1-phenylene)bis(1-((2S)-2-hydroxy-2-phenylacetyl)-2-pyrrolidinecarboxamide)], the EC50 under setting [1] was in the range of 100 to 999 nM.

With `CO[C@H](C(=O)N1CCC[C@H]1C(=O)Nc1ccc(-c2nc[nH]c2-c2ccc(NC(=O)[C@@H]3CCCN3C(=O)[C@@H](OC)c3ccccc3)cc2)cc1)c1ccccc1` [JG-45, (2S,2′S)-N,N′-(1H-imidazole-4,5-diyldi-4,1-phenylene)bis(1-((2S)-2-methoxy-2-phenylacetyl)-2-pyrrolidinecarboxamide)], the half-maximal effective concentration (EC50) under setting [1] is 4.57 to 99 nM. On to `C[C@@](O)(C(=O)N1CCC[C@H]1C(=O)Nc1ccc(-c2nc[nH]c2-c2ccc(NC(=O)[C@@H]3CCCN3C(=O)[C@@](C)(O)c3ccccc3)cc2)cc1)c1ccccc1` [JG-46, (2S,2′S)-N,N′-(1H-imidazole-4,5-diyldi-4,1-phenylene)bis(1-((2S)-2-hydroxy-2-phenylpropanoyl)-2-pyrrolidinecarboxamide)], for which the EC50 under setting [1] was below 4.57 nM. Same read-out and setting: next, `C[C@](O)(C(=O)N1CCC[C@H]1C(=O)Nc1ccc(-c2nc[nH]c2-c2ccc(NC(=O)[C@@H]3CCCN3C(=O)[C@](C)(O)c3ccccc3)cc2)cc1)c1ccccc1` [JG-47, (2S,2′S)-N,N′-(1H-imidazole-4,5-diyldi-4,1-phenylene)bis(1-((2R)-2-hydroxy-2-phenylpropanoyl)-2-pyrrolidinecarboxamide)]: 4.57 to 99 nM. In the case of `O=C(Nc1ccc(-c2nc[nH]c2-c2ccc(NC(=O)[C@@H]3CCCN3C(=O)c3nccc4ccccc34)cc2)cc1)[C@@H]1CCCN1C(=O)c1nccc2ccccc12` [JG-48, (2S,2′S)-N,N′-(1H-imidazole-4,5-diyldi-4,1-phenylene)bis(1-(1-isoquinolinylcarbonyl)-2-pyrrolidinecarboxamide)], the EC50 is 1000 to 10000 nM under setting [1] and 2340 nM under setting [2].

With `O=C(Nc1ccc(-c2nc[nH]c2-c2ccc(NC(=O)[C@@H]3CCCN3C(=O)c3nc(Cl)cc4ccccc34)cc2)cc1)[C@@H]1CCCN1C(=O)c1nc(Cl)cc2ccccc12` [JG-49, (2S,2′S)-N,N′-(1H-imidazole-4,5-diyldi-4,1-phenylene)bis(1-((3-chloro-1-isoquinolinyl)carbonyl)-2-pyrrolidinecarboxamide)], under setting [1], the EC50 was in the range of 1000 to 10000 nM. Still for that read-out and setting: next, `COc1cccc2c(C(=O)N3CCC[C@H]3C(=O)Nc3ccc(-c4nc[nH]c4-c4ccc(NC(=O)[C@@H]5CCCN5C(=O)c5nc(Cl)cc6c(OC)cccc56)cc4)cc3)nc(Cl)cc12` [JG-50, (2S,2′S)-N,N′-(1H-imidazole-4,5-diyldi-4,1-phenylene)bis(1-((3-chloro-5-methoxy-1-isoquinolinyl)carbonyl)-2-pyrrolidinecarboxamide)]: 100 to 999 nM. Turning to `O=C(Nc1ccc(-c2nc[nH]c2-c2ccc(NC(=O)[C@@H]3CCCN3C(=O)c3cc4ccccc4o3)cc2)cc1)[C@@H]1CCCN1C(=O)c1cc2ccccc2o1` [JG-51, (2S,2′S)-N,N′-(1H-imidazole-4,5-diyldi-4,1-phenylene)bis(1-(1-benzofuran-2-ylcarbonyl)-2-pyrrolidinecarboxamide)], under setting [1], the EC50 lay within 100 to 999 nM. Still for that read-out and setting: next, `O=C(Nc1ccc(-c2nc[nH]c2-c2ccc(NC(=O)[C@@H]3CCCN3C(=O)c3ccc4occc4c3)cc2)cc1)[C@@H]1CCCN1C(=O)c1ccc2occc2c1` [JG-52, (2S,2′S)-N,N′-(1H-imidazole-4,5-diyldi-4,1-phenylene)bis(1-(1-benzofuran-5-ylcarbonyl)-2-pyrrolidinecarboxamide)]: 100 to 999 nM.

As for `C[C@@H](C(=O)N1CCC[C@H]1C(=O)Nc1ccc(-c2ccc(-c3ccc(NC(=O)[C@@H]4CCCN4C(=O)[C@H](C)c4ccccc4)cc3)o2)cc1)c1ccccc1` [JG-53, (2S,2′S)-N,N′-(2,5-furandiyldi-4,1-phenylene)bis(1-((2R)-2-phenylpropanoyl)-2-pyrrolidinecarboxamide)], the EC50 under setting [1] was in the range of 4.57 to 99 nM.

On to `O=C(Nc1ccc(-c2ccc(-c3ccc(NC(=O)[C@@H]4CCCN4C(=O)OCc4ccccc4)cc3)o2)cc1)[C@@H]1CCCN1C(=O)OCc1ccccc1` [JG-54, dibenzyl (2S,2′S)-2,2′-(2,5-furandiylbis(4,1-phenylenecarbamoyl))di(1-pyrrolidinecarboxylate)], for which the EC50 under setting [1] is 100 to 999 nM. Consider `CC(=O)N1CCC[C@H]1C(=O)Nc1ccc(-c2ccc(-c3ccc(NC(=O)[C@@H]4CCCN4C(C)=O)cc3)o2)cc1` [JG-55, (2S,2′S)-N,N′-(2,5-furandiyldi-4,1-phenylene)bis(1-acetyl-2-pyrrolidinecarboxamide)], for which, under setting [1], the EC50 was 100 to 999 nM. `O=C(Nc1ccc(-c2ccc(-c3ccc(NC(=O)[C@@H]4CCCN4C(=O)[C@H](O)c4ccccc4)cc3)o2)cc1)[C@@H]1CCCN1C(=O)[C@H](O)c1ccccc1` [JG-56, (2S,2′S)-N,N′-(2,5-furandiyldi-4,1-phenylene)bis(1-((2R)-2-hydroxy-2-phenylacetyl)-2-pyrrolidinecarboxamide)]: the EC50 was below 4.57 nM under setting [3] and below 5 nM under setting [2].

Take `O=C(Nc1ccc(-c2ccc(-c3ccc(NC(=O)[C@@H]4CCCN4C(=O)[C@H](O)c4ccccc4)cc3)o2)cc1)[C@@H]1CCCN1C(=O)[C@H](O)c1ccccc1` [JG-57, (2S,2′S)-N,N′-(2,5-furandiyldi-4,1-phenylene)bis(1-((2R)-2-hydroxy-2-phenylacetyl)-2-pyrrolidinecarboxamide)]: under setting [3], the EC50 was in the range of 100 to 999 nM. Regarding `C[C@](O)(C(=O)N1CCC[C@H]1C(=O)Nc1ccc(-c2ccc(-c3ccc(NC(=O)[C@@H]4CCCN4C(=O)[C@](C)(O)c4ccccc4)cc3)o2)cc1)c1ccccc1` [JG-58, (2S,2′S)-N,N′-(2,5-furandiyldi-4,1-phenylene)bis(1-((2R)-2-hydroxy-2-phenylpropanoyl)-2-pyrrolidinecarboxamide)], the EC50 under setting [1] lay within 4.57 to 99 nM. The same measure, in the same setting: next, `CC(O)(C(=O)N1CCC[C@H]1C(=O)Nc1ccc(-c2ccc(-c3ccc(NC(=O)[C@@H]4CCCN4C(=O)[C@@](C)(O)c4ccccc4)cc3)o2)cc1)c1ccccc1` (stereo partly drawn) [JG-59, (2S)-1-((2S)-2-hydroxy-2-phenylpropanoyl)-N-(4-(5-(4-((((2S)-1-(2-hydroxy-2-phenylpropanoyl)-2-pyrrolidinyl)carbonyl)amino)phenyl)-2-furyl)phenyl)-2-pyrrolidinecarboxamide]: below 4.57 nM.

Values taken from patent US8735398B2 (Bristol-Myers Squibb Company, priority 2009, dated 2014).
